# Measurements: ChEMBL document CHEMBL5257097, “An Isomer of Galidesivir That Potently Inhibits Influenza Viruses and Members of the Bunyavirales Order” (ACS Med Chem Lett, 2023)
# Tests used:
# dengue virus type 2 [1] = test: Antiviral activity against DENV-2 infected in human Huh-7 cells assessed as reduction in virus-induced cytopathic effect measured after 15 to 30 mins by neutral red based analysis; format: functional, organism-based
# Huh-7 [2] = test: Cytotoxicity against human Huh-7 cells infected with DENV-2 assessed as reduction in cell viability by visual analysis; format: functional
# Yellow fever virus [3] = test: Antiviral activity against Yellow fever virus infected in human Huh-7 cells assessed as reduction in virus-induced cytopathic effect measured after 15 to 30 mins by neutral red based analysis; format: functional, organism-based
# Huh-7 [4] = test: Cytotoxicity against human Huh-7 cells infected with Yellow fever virus assessed as reduction in cell viability by visual assay; format: functional
# [5] = Selectivity index, ratio of CC50 for cytotoxicity against human Huh-7 cells infected with Yellow fever virus assessed as reduction in cell viability by neutral red dye based assay to EC50 for antiviral activity against Yellow fever virus infected in human Huh-7 cells assessed as reduction in virus-induced cytopathic effect by neutral red based analysis; format: toxicity; conditions: read-out: Ratio CC50/EC50
# Influenza A virus [6] = test: Antiviral activity against Influenza A virus H1N1 infected in dog MDCK cells assessed as reduction in virus-induced cytopathic effect measured after 15 to 30 mins by neutral red based analysis; format: functional, organism-based
# [7] = Cytotoxicity against dog MDCK cells infected with Influenza A virus H1N1 assessed as reduction in cell viability by neutral red dye based assay; format: toxicity, Canis lupus familiaris
# [8] = Selectivity index, ratio of CC50 for cytotoxicity against dog MDCK cells infected with Influenza A virus H1N1 assessed as reduction in cell viability by neutral red dye based analysis to EC50 for antiviral activity against Influenza A virus H1N1 infected in dog MDCK cells assessed as reduction in virus-induced cytopathic effect by neutral red dye based analysis; format: toxicity; conditions: read-out: Ratio CC50/EC50
# [9] = test system: Middle East respiratory syndrome-related coronavirus; test: Antiviral activity against MERS-CoV infected in African green monkey Vero 76 cells assessed as reduction in virus-induced cytopathic effect measured after 15 to 30 mins by neutral red dye based analysis; format: functional, organism-based
# [10] = Cytotoxicity against African green monkey Vero 76 cells infected with MERS-CoV assessed as reduction in cell viability by neutral red dye based analysis; format: toxicity; conditions: chlorocebus sabaeus
# [11] = Selectivity index, ratio of CC50 for cytotoxicity against African green monkey Vero 76 cells infected with MERS-CoV assessed as reduction in cell viability by neutral red dye based analysis to EC50 for antiviral activity against MERS-CoV infected in African green monkey Vero 76 cells assessed as reduction in virus-induced cytopathic effect by neutral red dye based analysis; format: toxicity; conditions: read-out: Ratio CC50/EC50
# Rift Valley fever virus [12] = test: Antiviral activity against Rift valley fever virus infected in African green monkey Vero 76 cells assessed as reduction in virus-induced cytopathic effect measured after 15 to 30 mins by neutral red dye based analysis; format: functional, organism-based
# [13] = Cytotoxicity against African green monkey Vero 76 cells infected with Rift valley fever virus assessed as reduction in cell viability by neutral red dye based analysis; format: toxicity; conditions: chlorocebus sabaeus
# [14] = Selectivity index, ratio of CC50 for cytotoxicity against African green monkey Vero 76 cells infected with Rift valley fever virus assessed as reduction in cell viability by neutral red dye based analysis to EC50 for antiviral activity against Rift valley fever virus infected in African green monkey Vero 76 cells assessed as reduction in virus-induced cytopathic effect by neutral red dye based analysis; format: toxicity; conditions: read-out: Ratio CC50/EC50
# dengue virus type 2 [15] = test: Antiviral activity against DENV-2 infected in African green monkey Vero cells assessed as reduction in virus-induced cytopathic effect measured after 15 to 30 mins by visual analysis; format: functional, organism-based
# dengue virus type 2 [16] = test: Antiviral activity against DENV-2 infected in African green monkey Vero cells assessed as reduction in virus-induced cytopathic effect measured after 15 to 30 mins by neutral red based analysis; format: functional, organism-based
# [17] = Cytotoxicity against African green monkey Vero cells infected with DENV-2 assessed as reduction in cell viability by visual assay; format: toxicity, cell-based; conditions: chlorocebus sabaeus
# [18] = Cytotoxicity against African green monkey Vero cells infected with DENV-2 assessed as reduction in cell viability by neutral red dye based assay; format: toxicity; conditions: chlorocebus sabaeus
# [19] = Selectivity index, ratio of CC50 for cytotoxicity against African green monkey Vero cells infected with DENV-2 assessed as reduction in cell viability by visual analysis to EC50 for antiviral activity against DENV-2 infected in human Huh-7 cells assessed as reduction in virus-induced cytopathic effect by visual analysis; format: toxicity, cell-based; conditions: read-out: Ratio CC50/EC50
# [20] = Selectivity index, ratio of CC50 for cytotoxicity against African green monkey Vero cells infected with DENV-2 assessed as reduction in cell viability by neutral red analysis to EC50 for antiviral activity against DENV-2 infected in human Huh-7 cells assessed as reduction in virus-induced cytopathic effect by neutral red analysis; format: toxicity, cell-based; conditions: read-out: Ratio CC50/EC50
# Yellow fever virus [21] = test: Antiviral activity against Yellow fever virus infected in human Huh-7 cells assessed as reduction in virus-induced cytopathic effect measured after 15 to 30 mins by visual analysis; format: functional, organism-based; conditions: huh-7
# Zika virus [22] = test: Antiviral activity against Zika virus infected in African green monkey Vero 76 cells assessed as reduction in virus-induced cytopathic effect measured after 15 to 30 mins by visual analysis; format: functional, organism-based
# Zika virus [23] = test: Antiviral activity against Zika virus infected in African green monkey Vero 76 cells assessed as reduction in virus-induced cytopathic effect measured after 15 to 30 mins by neutral red based spectrophotometric analysis; format: functional, organism-based
# [24] = Cytotoxicity against African green monkey Vero 76 cells infected with Zika virus assessed as reduction in cell viability by visual analysis; format: toxicity, cell-based; conditions: chlorocebus sabaeus
# [25] = Cytotoxicity against African green monkey Vero 76 cells infected with Zika virus assessed as reduction in cell viability by neutral red dye based assay; format: toxicity; conditions: chlorocebus sabaeus
# [26] = Selectivity index, ratio of CC50 for cytotoxicity against African green monkey Vero 76 infected with Zika virus assessed as reduction in cell viability by visual analysis to EC50 for antiviral activity against Zika virus infected in African green monkey Vero 76 cells assessed as reduction in virus-induced cytopathic effect by visual analysis; format: toxicity, cell-based; conditions: Vero 76 cells infected with Zika virus, read-out: Ratio CC50/EC50
# [27] = Selectivity index, ratio of CC50 for cytotoxicity against African green monkey Vero 76 cells infected with Zika virus assessed as reduction in cell viability by neutral red dye based analysis to EC50 for antiviral activity against Zika virus infected in African green monkey Vero 76 cells assessed as reduction in virus-induced cytopathic effect by neutral red based spectrophotometric analysis; format: toxicity; conditions: read-out: Ratio CC50/EC50
# Influenza A virus [28] = test: Antiviral activity against Influenza A virus H1N1 infected in dog MDCK cells assessed as reduction in virus-induced cytopathic effect measured after 15 to 30 mins by visual analysis; format: functional, organism-based
# [29] = Cytotoxicity against dog MDCK cells infected with Influenza A virus H1N1 assessed as reduction in cell viability by visual analysis; format: toxicity, cell-based, Canis lupus familiaris
# [30] = test system: Middle East respiratory syndrome-related coronavirus; test: Antiviral activity against MERS-CoV infected in vervet monkey MA-104 cells assessed as reduction in virus-induced cytopathic effect measured after 15 to 30 mins by visual analysis; format: functional, organism-based; conditions: MA104
# [31] = test system: Middle East respiratory syndrome-related coronavirus; test: Antiviral activity against MERS-CoV infected in vervet monkey MA-104 cells assessed as reduction in virus-induced cytopathic effect measured after 15 to 30 mins by neutral red dye based assay; format: functional, organism-based; conditions: MA104
# [32] = Cytotoxicity against vervet monkey MA-104 cells infected with MERS-CoV assessed as reduction in cell viability by visual assay; format: toxicity, cell-based; conditions: cercopithecus pygerythrus
# [33] = Cytotoxicity against vervet monkey MA-104 cells infected with MERS-CoV assessed as reduction in cell viability by neutral red dye based assay; format: toxicity; conditions: cercopithecus pygerythrus
# [34] = Selectivity index, ratio of CC50 for cytotoxicity against African green monkey Vero 76 cells infected with MERS-CoV assessed as reduction in cell viability by visual analysis to EC50 for antiviral activity against MERS-CoV infected in African green monkey Vero 76 cells assessed as reduction in virus-induced cytopathic effect by visual analysis; format: toxicity, cell-based; conditions: read-out: Ratio CC50/EC50
# Rift Valley fever virus [35] = test: Antiviral activity against Rift valley fever virus infected in African green monkey Vero 76 cells assessed as reduction in virus-induced cytopathic effect measured after 15 to 30 mins by visual analysis; format: functional, organism-based
# [36] = Cytotoxicity against African green monkey Vero 76 cells infected with Rift valley fever virus assessed as reduction in cell viability by visual analysis; format: toxicity, cell-based; conditions: chlorocebus sabaeus
# [37] = Selectivity index, ratio of CC50 for cytotoxicity against African green monkey Vero 76 cells infected with Rift valley fever virus assessed as reduction in cell viability by visual analysis to EC50 for antiviral activity against Rift valley fever virus infected in African green monkey Vero 76 cells assessed as reduction in virus-induced cytopathic effect by visual analysis; format: toxicity, cell-based; conditions: read-out: Ratio CC50/EC50
# Influenza A virus [38] = test: Antiviral activity against Influenza A virus H3N2 infected in dog MDCK cells; format: functional, organism-based
# Influenza A virus [39] = test: Antiviral activity against Influenza A virus H1N1 infected in dog MDCK cells; format: functional, organism-based
# Influenza A virus [40] = test: Antiviral activity against Influenza A virus H7N9 infected in dog MDCK cells; format: functional, organism-based
# Influenza B virus = test: Antiviral activity against Influenza B virus infected in dog MDCK cells
# [41] = Cytotoxicity against dog MDCK cells infected with Influenza A virus H1N1; format: toxicity, cell-based, Canis lupus familiaris
# [42] = Cytotoxicity against dog MDCK cells infected with Influenza A virus H3N2; format: toxicity, cell-based, Canis lupus familiaris
# [43] = Cytotoxicity against dog MDCK cells infected with Influenza B virus; format: toxicity, cell-based, Canis lupus familiaris
structure (smiles),measurement,setting,value
CC(C)OC(=O)[C@H](C)N[P@](=O)(OC[C@H]1N[C@@H](c2ccc3c(N)ncnn23)[C@H](O)[C@@H]1O)Oc1ccccc1,EC50,dengue virus type 2 [1],1.1 µM
same,CC50,Huh-7 [2],9.9 µM
same,EC50,Yellow fever virus [3],3.6 µM
same,CC50,Huh-7 [4],9.9 µM
same,selectivity ratio,[5],9
same,EC50,Influenza A virus [6],4.7 µM
same,CC50,[7],> 32 µM
same,selectivity ratio,[8],> 6.8
same,EC50,[9],13 µM
same,CC50,[10],68 µM
same,selectivity ratio,[11],5.2
same,EC50,Rift Valley fever virus [12],0.99 µM
same,CC50,[13],> 32 µM
same,selectivity ratio,[14],> 32
CC(C)OC(=O)[C@H](C)N[P@](=O)(OC[C@H]1N[C@@H](c2c[nH]c3c(N)ncnc23)[C@H](O)[C@@H]1O)Oc1ccccc1,EC50,dengue virus type 2 [1],> 100 µM
same,CC50,Huh-7 [2],> 100 µM
same,EC50,Yellow fever virus [3],> 100 µM
same,CC50,Huh-7 [4],> 100 µM
same,EC50,Influenza A virus [6],> 100 µM
same,CC50,[7],> 100 µM
same,EC50,[9],> 100 µM
same,CC50,[10],> 100 µM
same,EC50,Rift Valley fever virus [12],> 100 µM
same,CC50,[13],> 100 µM
Nc1ncnc2c([C@@H]3N[C@H](CO)[C@@H](O)[C@H]3O)n[nH]c12,EC50,dengue virus type 2 [15],3.2 µM
same,EC50,dengue virus type 2 [16],2.8 µM
same,CC50,[17],> 100 µM
same,CC50,[18],2.8 µM
same,selectivity ratio,[19],3.1
same,selectivity ratio,[20],3.5
same,EC50,Yellow fever virus [21],Not Active
same,EC50,Zika virus [22],32 µM
same,EC50,Zika virus [23],12 µM
same,CC50,[24],100 µM
same,CC50,[25],13 µM
same,selectivity ratio,[26],3.1
same,selectivity ratio,[27],1.1
same,EC50,Influenza A virus [28],> 100 µM
same,EC50,Influenza A virus [6],> 100 µM
same,CC50,[29],> 100 µM
same,CC50,[7],> 100 µM
same,EC50,[30],8.6 µM
same,EC50,[31],9.9 µM
same,CC50,[32],42 µM
same,CC50,[33],45 µM
same,selectivity ratio,[34],4.9
same,selectivity ratio,[11],4.5
same,EC50,Rift Valley fever virus [35],4.2 µM
same,CC50,[36],8.3 µM
same,EC50,Rift Valley fever virus [12],4.2 µM
same,CC50,[13],> 100 µM
same,selectivity ratio,[37],8.3
same,selectivity ratio,[14],7.6
NC(=O)c1ncn([C@@H]2O[C@H](CO)[C@@H](O)[C@H]2O)n1 [RIBAVIRIN],EC50,Influenza A virus [38],1.9 µM
same,EC50,Influenza A virus [39],1.9 µM
same,EC50,Influenza A virus [40],10 µM
same,EC50,Influenza B virus,1.9 µM
same,CC50,[41],> 1000 µM
same,CC50,[42],> 1000 µM
same,CC50,[43],> 1000 µM
